The values that follow come from patent US5665779A, “Pharmaceutical composition for inhibiting the infection with AIDS virus” (Zaidan, Hojin, Biseibutsu, Kagaku, Kenkyu, Kai, priority 1991, dated 1997).

The test system of data set [1] is HIV (HTLV-IIIB strain) in MT-4 cells (human T-cell line). The experiment in a line: Inhibition of infection of human T-cells (MT-4) with HIV, HIV antigen-positive cells by indirect immunofluorescence. The class given is cell-based. Particulars: for EC50: MT-4 cells, read-out: 50% Effective concentration (ED50) against HIV. As for the experimental part:
Effects of D-β-lysylmethanediamine inhibitory to infection of human T-cells with HIV were examined in a similar manner to the assay methods described in the "Proc. Natl. Acad, Sci. USA," 80, 6061-6065 (1983); "J. Antibiot.", 40, 1077-1078, (1987); "J. Antibiot.", 42, 344-346 (1989) and "J. Antibiot." 44, 1228-1236 (1991).
1×10^5 Cells/ml of MT-4 cells (human T-cell line) in phosphate buffered saline were seeded into Costar 48-well plates in an amount of 0.5 ml/well. Each well was added with 0.05 ml of a solution of the test compound, namely D-β-lysylmethanediamine (dissolved at different concentrations of 3, 10, 30 and 100 μg per ml in phosphate buffered saline). After incubation for 2 hours at 37° C. under 5% CO2, the MT-4 cells were infected with 0.05 ml of HIV (HTLV-IIIB strain) as added in an amount of multiplicity of infection (m.o.i) of 0.025 to 0.05 in each well. The plates were incubated for 4 days at 37° C. under 5% CO2 so that the T-cells were treated in the presence of the test compound at the different concentrations.
Portions of the incubated cultures were taken and the MT-4 cells were smeared onto slide glasses, dried and fixed with acetone. The presence of the HIV antigen-positive MT-4 cells was detected by the indirect immunofluoroescent assay [Y. Hinuma et al., "Proc. Natl. Acad. Sci. USA," 78, 6476-6480, (1981) and Y. Takeuchi et al., "Gann.", 78, 11-15 (1987)]. To this end, the cell smears, that is, the acetone-fixed cell smears were treated at 37° C. for 30 minutes with such serum of AIDS patient at a dilution of 1:10 in phosphate buffered saline, which was employed as the first antibody. After washing subsequently with phosphate buffered saline, the MT-4 cells were treated at 37° C. for 30 minutes with fluorescent isothiocyanate-conjugated rabbit anti-human IgG serum (Cappel Laboratories, Cocharanville, Pa., USA), which was employed as the second antibody. After the cell smears were then washed with phosphate buffered saline and covered with a cover glass, the MT-4 cells were examined under a fluorescence microscope. Percentages of the number of the viral antigen-positive MT-4 cells (namely, immunofluorescent cells where the HIV-associated antigens were present and expressed) in total cells were calculated.
For the control tests of estimating the number of the total cells under test, the above test procedures were repeated without addition of D-β-lysylmethanediamine.
In order to evaluate the activity of D-β-lysylmethanediamine to inhibit the infection of human T-cells, namely the MT-4 cells with HIV, calculation was made of the percentages (T/C, %) of the number (T) of the HIV antigen-positive cells as measured in the above-mentioned tests where the incubation of MT-4 cells was effected in the presence of the test compound, against the number (C) of the HIV antigen-positive cells as measured in the above-mentioned control tests where the incubation of MT-4 cells was effected without the addition of the test compound. The results of such calculation of the T/C values (%) are shown in Table 1 in term of rate (%) of presence or occurrence of the HIV antigen-positive cells.

Data set [2] is described as follows: Extractability with organic solvents. Format: physicochemical. As to conditions: from liquid portion of the culture.
Data set [3] is described as follows: Solubility in water. Format: physicochemical. Particulars: in words.
For data set [4], the target named is T1, reverse transcriptase of HIV (HIV-1 M:B_HXB2R, UniProt P04585).
T1 construct: preparation not described
The experiment in a line: Activity inhibitory to reverse transcriptase of HIV. Format: biochemical. Particulars: 100 μg/ml. From the text:
Thus, it is apparent that D-β-lysylmethanediamine can inhibit strongly the infection of human T-cells with HIV by any mechanism yet unknown.

The target in data set [5] is T2, protease of HIV (HIV-1 M:B_HXB2R, UniProt P04585).
T2 construct: preparation not described
In words: Activity inhibitory to protease of HIV. The class given is biochemical. As to conditions: 100 μg/ml.

For data set [6], the system named is MT-4 cells. The experiment in a line: Cytotoxicity to MT-4 cells in the absence of HIV. Particulars: even at a concentration of 100 μg/ml. The class given is cell-based, human. As for the experimental part: Furthermore, cytotoxicity of D-β-lysylmethanediamine to the MT-4 cells was estimated. This was done by incubating the MT-4 cells at varying concentrations of D-β-lysylmethanediamine added and in the absence of HIV but in the same manner of incubation and under the same conditions of incubation of MT-4 cells as those employed in the above-mentioned test procedures of assaying the activity of D-β-lysylmethanediamine to inhibit the infection of T-cells with HIV. That the cytotoxicity was not observed is represented by the symbol "-" in Table 1 below.

The nature of data set [7]: Acute toxicity in mice, intravenous. Particulars: mouse, in vivo, read-out: Dosage tolerated without death (acute toxicity). As for the experimental part:
D-β-Lysylmethanediamine used according to this invention is characterised by its low toxicity to mammalian animals. For instance, in the tests of estimating acute toxicity of this compound where mice were intravenously administered with D-β-lysylmethanediamine, the mice having received administration of D-β-lysylmethanediamine could tolerate a dosage of 250 mg/kg of D-β-lysylmethanediamine without involving their death.

In data set [8] the test system is Gram-positive bacteria. Particulars: J. Antibiotics 39(3), 476 (1986); Kokai Sho-62-114947; cited from earlier work.
For data set [9] the following is noted: colorless powder; reported earlier; cited from earlier work.
A short description of data set [10]: Hygroscopicity. The class given is physicochemical. Particulars: colorless powdery substance, Referential Example 1.
Setting [11] is: Human immunodeficiency virus 1, IIIB, MT4, 96 h.

≈ marks a conversion by molar mass, not a printed value. Like-named read-outs stand apart in the source and are kept apart here. Where only a bound is given, the exact number is not on record here.

As for `OC[C@@H]1CC[C@H](n2cnc3c(O)ncnc32)O1` [DDI, 2',3'-dideoxyinosine, reference compound], in data set [1] (setting [11]), the EC50 amounted to 0.46 µg/mL (≈ 1.95 µM). Also, the “Effect of inhibiting the infection of human T-cells with HIV compared with D-β-lysylmethanediamine (in words)” value in data set [1] (relative to D-β-lysylmethanediamine, from ED50) is recorded as “to the same extent”.

In the case of `NCCC[C@@H](N)CC(=O)NCN` [D-β-lysylmethanediamine], the activity at 3 µg/mL in data set [1] (Human immunodeficiency virus 1, IIIB, MT4, 96 h, 3 μg/ml, T/C % vs control without test compound, 4 days, 37° C., read-out: Rate (%) of presence of HIV antigen-positive cells) is 30%. Moreover, in data set [1] (Human immunodeficiency virus 1, IIIB, MT4, 96 h, 10 μg/ml, T/C % vs control without test compound, 4 days, 37° C., read-out: Rate (%) of presence of HIV antigen-positive cells), the activity at 10 µg/mL is 15%. For the same molecule, the activity at 30 µg/mL in data set [1] (Human immunodeficiency virus 1, IIIB, MT4, 96 h, 30 μg/ml, T/C % vs control without test compound, 4 days, 37° C., read-out: Rate (%) of presence of HIV antigen-positive cells) was 10%. For the same molecule, the activity at 100 µg/mL in data set [1] (Human immunodeficiency virus 1, IIIB, MT4, 96 h, 100 μg/ml, T/C % vs control without test compound, 4 days, 37° C., read-out: Rate (%) of presence of HIV antigen-positive cells) came to 5%. Moreover, the EC50 in data set [1] (setting [11]) amounted to 0.62 µg/mL (≈ 3.56 µM). For the same molecule, the “Reduction of the number of HIV antigen-positive cells (in words)” value in data set [1] (concentrations of no more than 100 μg/ml) is on record as “reduce significantly”. In addition, the “Extraction with butanol, butyl acetate, chloroform and other organic solvents” value in [2] is “substantially connot be extracted”. Moreover, the Solubility in water entry in data set [3] was “well soluble in water”. Further, the “Activity inhibitory to reverse transcriptase of HIV” value in [4] is “neither any activity inhibitory to reverse transcriptase of HIV”. Also, in data set [5], the “Activity inhibitory to protease of HIV” value is recorded as “nor any activity inhibitory to protease of HIV”. Further, the “Cytotoxicity (in words)” value in data set [6] is on record as “no cytotoxicity”. The MTD in data set [7] was not below 250 mg/kg. Moreover, the “Antibacterial activity against Gram-positive bacteria” value in [8] is listed as “weak antibacterial activity”.

For `NCCC[C@@H](N)CC(=O)NCN` [D-β-lysylmethanediamine hemicarbonate], the Hygroscopicity result in data set [9] and in data set [10] was “hygroscopic” in each case.
